According to article PMC10215302 (Antibiotics, 2023):
In brackets after ≈: the same amount, converted by molar mass. Read-outs that look alike come from different tables or passages of the source.

Experiments:
S. aureus SA0077 [1] = test: microbe, parasite or virus in culture; conditions: Staphylococcus aureus
S. aureus SA0085 [2] = test: microbe, parasite or virus in culture; conditions: Staphylococcus aureus
S. aureus SA0422 [3] = test: microbe, parasite or virus in culture; conditions: Staphylococcus aureus
S. aureus SA0736 [4] = test: microbe, parasite or virus in culture; conditions: Staphylococcus aureus
S. aureus ATCC 29213 [5] = test: microbe, parasite or virus in culture; conditions: Staphylococcus aureus
S. aureus SA0077 [6] = tested on: S. aureus SA0077
S. aureus SA0085 [7] = tested on: S. aureus SA0085
S. aureus SA0422 [8] = tested on: S. aureus SA0422
S. aureus SA0736 [9] = tested on: S. aureus SA0736
S. aureus ATCC 29213 [10] = tested on: S. aureus ATCC 29213
[11] = SA0077, read-out: MIC values, Table S1: SA0077 Abf (passages on antibiotic-free media)
[12] = SA0077, read-out: MIC values, Table S1: SA0077 VAN (derivative after 40 passages on vancomycin)
[13] = SA0085, read-out: MIC values, Table S1: SA0085 VAN (derivative after 40 passages on vancomycin)
[14] = SA0422, read-out: MIC values, Table S1: SA0422 DAP (derivative after 40 passages on daptomycin)
[15] = SA0422, read-out: MIC values, Table S1: SA0422 VAN (derivative after 40 passages on vancomycin)
[16] = SA0736, read-out: MIC values, Table S1: SA0736 DAP-W (40 passages on daptomycin, white colonies)
[17] = SA0736, read-out: MIC values, Table S1: SA0736 VAN (derivative after 40 passages on vancomycin)
[18] = ATCC29213, read-out: MIC values

Molecule: O=C(O)c1cn(C2CC2)c2cc(N3CCNCC3)c(F)cc2c1=O [Ciprofloxacin]
- MIC (S. aureus SA0077 [1]; SA0077, read-out: MIC values): 16 µg/mL (≈ 48.3 µM)
- MIC (S. aureus SA0077 [1]; [11]): 32 µg/mL (≈ 96.6 µM)
- MIC (S. aureus SA0077 [1]; [12]): 64 µg/mL (≈ 193 µM)
- MIC (S. aureus SA0085 [2]; SA0085, read-out: MIC values): 256 µg/mL (≈ 773 µM)
- MIC (S. aureus SA0085 [2]; [13]): 32 µg/mL (≈ 96.6 µM)
- MIC (S. aureus SA0422 [3]; SA0422, read-out: MIC values): 128 µg/mL (≈ 386 µM)
- MIC (S. aureus SA0422 [3]; [14]): 32 µg/mL (≈ 96.6 µM)
- MIC (S. aureus SA0422 [3]; [15]): 64 µg/mL (≈ 193 µM)
- MIC (S. aureus SA0736 [4]; SA0736, read-out: MIC values): 128 µg/mL (≈ 386 µM)
- MIC (S. aureus SA0736 [4]; [16]): 64 µg/mL (≈ 193 µM)
- MIC (S. aureus SA0736 [4]; SA0736, read-out: MIC values, Table S1: SA0736 DAP-Y (40 passages on daptomycin, yellow colonies)): 32 µg/mL (≈ 96.6 µM)
- MIC (S. aureus SA0736 [4]; [17]): 16 µg/mL (≈ 48.3 µM)
- MIC (S. aureus ATCC 29213 [5]; [18]): 0.25 µg/mL (≈ 0.754 µM)

Molecule: CN(C)[C@@H]1C(O)=C(C(N)=O)C(=O)[C@@]2(O)C(O)=C3C(=O)c4c(O)cccc4[C@@](C)(O)[C@H]3C[C@@H]12 [Tetracycline]
- MIC (S. aureus SA0077 [1]; SA0077, read-out: MIC values): 0.06 µg/mL (≈ 0.135 µM)
- MIC (S. aureus SA0085 [2]; SA0085, read-out: MIC values): 32 µg/mL (≈ 72 µM)
- MIC (S. aureus SA0085 [2]; SA0085, read-out: MIC values, Table S1: SA0085 DAP (derivative after 40 passages on daptomycin)): 16 µg/mL (≈ 36 µM)
- MIC (S. aureus SA0085 [2]; [13]): 0.125 µg/mL (≈ 0.281 µM)
- MIC (S. aureus SA0422 [3]; SA0422, read-out: MIC values): 0.06 µg/mL (≈ 0.135 µM)
- MIC (S. aureus SA0422 [3]; [15]): 0.125 µg/mL (≈ 0.281 µM)
- MIC (S. aureus SA0736 [4]; SA0736, read-out: MIC values): 16 µg/mL (≈ 36 µM)
- MIC (S. aureus ATCC 29213 [5]; [18]): 0.125 µg/mL (≈ 0.281 µM)
- MIC (S. aureus ATCC 29213 [5]; ATCC29213, read-out: MIC values, Table S1: ATCC 29213 DAP (derivative after 40 passages on daptomycin)): 0.06 µg/mL (≈ 0.135 µM)
- MIC (S. aureus ATCC 29213 [5]; ATCC29213, read-out: MIC values, Table S1: ATCC 29213 VAN (derivative after 40 passages on vancomycin)): 0.5 µg/mL (≈ 1.13 µM)

Molecule: CCC[C@@H]1C[C@@H](C(=O)N[C@@H]([C@H]2O[C@H](SC)[C@H](O)[C@@H](O)[C@H]2O)[C@H](C)Cl)N(C)C1 [Clindamycin]
- MIC (S. aureus SA0077 [1]; SA0077, read-out: MIC values): > 64 µg/mL
- MIC (S. aureus SA0085 [2]; SA0085, read-out: MIC values): > 64 µg/mL
- MIC (S. aureus SA0422 [3]; SA0422, read-out: MIC values): 0.06 µg/mL (≈ 0.141 µM)
- MIC (S. aureus SA0736 [4]; SA0736, read-out: MIC values): 0.06 µg/mL (≈ 0.141 µM)
- MIC (S. aureus ATCC 29213 [5]; [18]): 0.06 µg/mL (≈ 0.141 µM)

Molecule: oritavancin
- MIC (S. aureus SA0077 [6]; SA0077, selecting agent DAP, passage 5): 2 µg/mL
- MIC (S. aureus SA0077 [6]; SA0077, selecting agent DAP, passage 20): 4 µg/mL
- MIC (S. aureus SA0077 [6]; SA0077, selecting agent DAP, passage 40): 4 µg/mL
- MIC (S. aureus SA0077 [6]; SA0077, selecting agent VAN, passage 0): <0.03 µg/mL
- MIC (S. aureus SA0077 [6]; SA0077, selecting agent VAN, passage 5): 0.125 µg/mL
- MIC (S. aureus SA0077 [6]; SA0077, selecting agent VAN, passage 20): 2 µg/mL
- MIC (S. aureus SA0077 [6]; SA0077, selecting agent VAN, passage 40): 2 µg/mL
- MIC values (S. aureus SA0077 [6]; Table S1: SA0077 Abf (passages on antibiotic-free media)): 0.06 µg/mL
- MIC (S. aureus SA0085 [7]; SA0085, selecting agent DAP, passage 5): <0.03 µg/mL
- MIC (S. aureus SA0085 [7]; SA0085, selecting agent DAP, passage 20): 0.06 µg/mL
- MIC (S. aureus SA0085 [7]; SA0085, selecting agent DAP, passage 40): 1 µg/mL
- MIC (S. aureus SA0085 [7]; SA0085, selecting agent VAN, passage 0): <0.03 µg/mL
- MIC (S. aureus SA0085 [7]; SA0085, selecting agent VAN, passage 5): 0.06 µg/mL
- MIC (S. aureus SA0085 [7]; SA0085, selecting agent VAN, passage 20): 2 µg/mL
- MIC (S. aureus SA0085 [7]; SA0085, selecting agent VAN, passage 40): 1 µg/mL
- MIC values (S. aureus SA0085 [7]; Table S1: SA0085 Abf (passages on antibiotic-free media)): < 0.03 µg/mL
- MIC (S. aureus SA0422 [8]; SA0422, selecting agent DAP, passage 5): 0.125 µg/mL
- MIC (S. aureus SA0422 [8]; SA0422, selecting agent DAP, passage 20): 0.5 µg/mL
- MIC (S. aureus SA0422 [8]; SA0422, selecting agent DAP, passage 40): 0.5 µg/mL
- MIC (S. aureus SA0422 [8]; SA0422, selecting agent VAN, passage 0): <0.03 µg/mL
- MIC (S. aureus SA0422 [8]; SA0422, selecting agent VAN, passage 5): 0.06 µg/mL
- MIC (S. aureus SA0422 [8]; SA0422, selecting agent VAN, passage 20): 0.25 µg/mL
- MIC (S. aureus SA0422 [8]; SA0422, selecting agent VAN, passage 40): 0.5 µg/mL
- MIC (S. aureus SA0736 [9]; SA0736, selecting agent DAP, passage 5): <0.03 µg/mL
- MIC (S. aureus SA0736 [9]; SA0736, selecting agent DAP, passage 20): 2 µg/mL
- MIC (S. aureus SA0736 [9]; SA0736, selecting agent DAP, passage 40Y (yellow colonies)): 4 µg/mL
- MIC (S. aureus SA0736 [9]; SA0736, selecting agent VAN, passage 0): <0.03 µg/mL
- MIC (S. aureus SA0736 [9]; SA0736, selecting agent VAN, passage 5): 0.25 µg/mL
- MIC (S. aureus SA0736 [9]; SA0736, selecting agent VAN, passage 20): 2 µg/mL
- MIC (S. aureus SA0736 [9]; SA0736, selecting agent VAN, passage 40): 2 µg/mL
- MIC values (S. aureus SA0736 [9]; Table S1: SA0736 DAP-W (40 passages on daptomycin, white colonies)): 4 µg/mL
- MIC values (S. aureus SA0736 [9]; Table S1: SA0736 DAP-Y (40 passages on daptomycin, yellow colonies)): 4 µg/mL
- MIC (S. aureus ATCC 29213 [10]; ATCC 29213, selecting agent DAP, passage 5): 0.06 µg/mL
- MIC (S. aureus ATCC 29213 [10]; ATCC 29213, selecting agent DAP, passage 20): 0.125 µg/mL
- MIC (S. aureus ATCC 29213 [10]; ATCC 29213, selecting agent DAP, passage 40): 2 µg/mL
- MIC (S. aureus ATCC 29213 [10]; ATCC 29213, selecting agent VAN, passage 0): 0.06 µg/mL
- MIC (S. aureus ATCC 29213 [10]; ATCC 29213, selecting agent VAN, passage 5): 0.06 µg/mL
- MIC (S. aureus ATCC 29213 [10]; ATCC 29213, selecting agent VAN, passage 20): 0.06 µg/mL
- MIC (S. aureus ATCC 29213 [10]; ATCC 29213, selecting agent VAN, passage 40): 4 µg/mL
- MIC values (S. aureus RN4220; Table S1: RN4220 WT): 0.016 µg/mL
- MIC values (S. aureus RN4220; Table S1: RN4220 ∆ (strain with deletion in SACOL1927)): 0.016 µg/mL

Molecule: COc1c(N2C[C@@H]3CCCN[C@@H]3C2)c(F)cc2c(=O)c(C(=O)O)cn(C3CC3)c12 [Moxifloxacin]
- MIC (S. aureus SA0077 [1]; SA0077, read-out: MIC values): 2 µg/mL (≈ 4.98 µM)
- MIC (S. aureus SA0077 [1]; [12]): 4 µg/mL (≈ 9.96 µM)
- MIC (S. aureus SA0085 [2]; SA0085, read-out: MIC values): 8 µg/mL (≈ 19.9 µM)
- MIC (S. aureus SA0422 [3]; SA0422, read-out: MIC values): 2 µg/mL (≈ 4.98 µM)
- MIC (S. aureus SA0736 [4]; SA0736, read-out: MIC values): 2 µg/mL (≈ 4.98 µM)
- MIC (S. aureus SA0736 [4]; [16]): 4 µg/mL (≈ 9.96 µM)
- MIC (S. aureus SA0736 [4]; [17]): 4 µg/mL (≈ 9.96 µM)
- MIC (S. aureus ATCC 29213 [5]; [18]): 0.125 µg/mL (≈ 0.311 µM)

Molecule: Cn1nnc(-c2ccc(-c3ccc(N4C[C@H](CO)OC4=O)cc3F)cn2)n1 [Tedizolid]
- MIC (S. aureus SA0077 [1]; SA0077, read-out: MIC values): 0.25 µg/mL (≈ 0.675 µM)
- MIC (S. aureus SA0077 [1]; [11]): 0.125 µg/mL (≈ 0.338 µM)
- MIC (S. aureus SA0077 [1]; SA0077, read-out: MIC values, Table S1: SA0077 DAP (derivative after 40 passages on daptomycin)): 0.125 µg/mL (≈ 0.338 µM)
- MIC (S. aureus SA0077 [1]; [12]): 0.125 µg/mL (≈ 0.338 µM)
- MIC (S. aureus SA0085 [2]; SA0085, read-out: MIC values): 0.5 µg/mL (≈ 1.35 µM)
- MIC (S. aureus SA0085 [2]; [13]): 0.06 µg/mL (≈ 0.162 µM)
- MIC (S. aureus SA0422 [3]; SA0422, read-out: MIC values): 0.25 µg/mL (≈ 0.675 µM)
- MIC (S. aureus SA0422 [3]; [14]): 0.125 µg/mL (≈ 0.338 µM)
- MIC (S. aureus SA0736 [4]; SA0736, read-out: MIC values): 0.125 µg/mL (≈ 0.338 µM)
- MIC (S. aureus ATCC 29213 [5]; [18]): 0.25 µg/mL (≈ 0.675 µM)
